# Laboratory results published in patent EP4810040A2, “INHIBITORS OF APOL1 AND METHODS OF USING SAME” (priority 2020, dated 2022).
# Molecular target: T1, APOL1 G1 (Homo sapiens, UniProt O14791, I384M/S342G)
# T1 sequence (O14791 28-398 S342G/I384M): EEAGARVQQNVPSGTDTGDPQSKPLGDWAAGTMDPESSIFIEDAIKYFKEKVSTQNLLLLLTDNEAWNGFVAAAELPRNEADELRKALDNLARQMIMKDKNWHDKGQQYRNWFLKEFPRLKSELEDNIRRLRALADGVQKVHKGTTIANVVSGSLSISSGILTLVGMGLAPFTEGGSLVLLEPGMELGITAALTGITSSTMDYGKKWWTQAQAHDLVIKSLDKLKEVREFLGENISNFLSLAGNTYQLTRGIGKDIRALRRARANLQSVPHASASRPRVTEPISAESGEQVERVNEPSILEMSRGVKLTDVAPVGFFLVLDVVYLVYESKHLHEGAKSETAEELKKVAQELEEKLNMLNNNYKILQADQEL
# Assay: MultiTox-Fluor Multiplex Cytotoxicity Assay, tet-inducible APOL1 G1 T-REx-HEK293 cells
# Assay type: cell-based
# Parameters: expressed in transfected cells; host or cells: T-REx HEK293, clone G1 DC3.25 (pAAVS1-Puro-APOL1 G1)
# Conditions: Multi-Tox Assay; for IC90: APOL1 variant (G0/G1/G2) not stated in Table 46, read-out: Multi-Tox Assay IC90; for Emax: APOL1 variant not stated in Table 46, read-out: Multi-Tox Assay Max Activity (%)
# In short: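 Over 24 h at 37 °C, compounds (10-point 3-fold series from 10 µM, duplicate) were co-incubated with 50 ng/mL tetracycline inducing APOL1 G1 in T-REx-HEK293 cells. Viability/cytotoxicity measured by MultiTox-Fluor as dead-to-live fluorescence ratio, expressed as percent of control between uninduced and induced wells and fitted.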
SMILES,IC90 [nM],Emax [%]
"C[C@H]1C[C@@]2(C[C@@H](C3(CO)CC3)N1)OCCc1cc(Cl)sc12 [Compound 380, [1-[(2'S,6'S,7S)-2-chloro-6'-methyl-spiro[4,5-dihydrothieno[2,3-c]pyran-7,4'-piperidine]-2'-yl]cyclopropyl]methanol]",50 to 500,
"Cn1cc([C@@H]2C[C@]3(C[C@H](C4CC4)N2)OCCc2cc(Cl)sc23)nn1 [Compound 381, (2'R,6'S,7S)-2-chloro-2'-cyclopropyl-6'-(1-methyltriazol-4-yl)spiro[4,5-dihydrothieno[2,3-c]pyran-7,4'-piperidine]]",< 50,100
"Cn1cc([C@@H]2C[C@]3(C[C@H](C4CC4)N2)OC[C@@H](O)c2cc(Cl)sc23)nn1 [Compound 382, (2'R,4S,6'S,7S)-2-chloro-2'-cyclopropyl-6'-(1-methyltriazol-4-yl)spiro[4,5-dihydrothieno[2,3-c]pyran-7,4'-piperidine]-4-ol]",50 to 500,100
"Cn1cc([C@@H]2C[C@]3(C[C@H](C4CC4)N2)OCCc2cc(C(F)(F)F)sc23)nn1 [Compound 383, (2'R,6'S,7S)-2'-cyclopropyl-6'-(1-methyltriazol-4-yl)-2-(trifluoromethyl)spiro[4,5-dihydrothieno[2,3-c]pyran-7,4'-piperidine]]",< 50,100
"C[C@H]1C[C@@]2(C[C@@H](c3cn(C)nn3)N1)OCC(C)(O)c1cc(C(F)(F)F)sc12 (stereo partly drawn) [Compound 384, (2'S,6'S,7S)-2',4-dimethyl-6'-(1-methyltriazol-4-yl)-2-(trifluoromethyl)spiro[5H-thieno[2,3-c]pyran-7,4'-piperidine]-4-ol]",< 50,100
"[2H]C1([2H])O[C@@]2(C[C@@H](c3cn(C)nn3)N[C@@H](C)C2)c2sc(Cl)cc2[C@]1([2H])O [Compound 385, (2S,4S,4'S,6S)-2'-chloro-4',5',5'-trideuterio-2-methyl-6-(1-methyltriazol-4-yl)spiro[piperidine-4,7'-thieno[2,3-c]pyran]-4'-ol]",< 50,100
"[2H][13C]([2H])([2H])n1cc([C@@H]2[13CH2][C@]3(C[C@H](C)N2)OC[C@@H](O)c2cc(C(F)(F)F)sc23)nn1 [Compound 386, (2S,4S,4'S,6S)-2-methyl-6-(1-(methyl-^13C-d3)-1H-1,2,3-triazol-4-yl)-2'-(trifluoromethyl)-4',5'-dihydrospiro[piperidine-4,7'-thieno[2,3-c]pyran]-5-^13C-4'-ol]",< 50,100
"Cn1cc([C@@H]2C[C@]3(C[C@H](c4ccccc4)N2)OC[C@@H](O)c2cc(Cl)sc23)nn1 [Compound 387, (2'S,4S,6'R,7S)-2-chloro-2'-(1-methyltriazol-4-yl)-6'-phenyl-spiro[4,5-dihydrothieno[2,3-c]pyran-7,4'-piperidine]-4-ol]",> 500,94
"Cn1cc(C2CC3(CC(C(F)F)N2)OCCc2cc(Cl)sc23)nn1 (stereo not drawn) [Compound 388, 2-chloro-2'-(difluoromethyl)-6'-(1-methyltriazol-4-yl)spiro[4,5-dihydrothieno[2,3-c]pyran-7,4'-piperidine]]",> 500,90
"Cn1cc(C2CC3(CC(C(F)F)N2)OCCc2cc(C(F)(F)F)sc23)nn1 (stereo not drawn) [Compound 389, 2'-(difluoromethyl)-6'-(1-methyltriazol-4-yl)-2-(trifluoromethyl)spiro[4,5-dihydrothieno[2,3-c]pyran-7,4'-piperidine]]",> 500,99
"C[C@H]1C[C@@]2(C[C@@H](c3cn(C)nn3)N1)OC[C@@H](O)c1sc(C(F)(F)F)cc12 [Compound 390, (2'S,4S,6'S,7R)-2'-methyl-6'-(1-methyltriazol-4-yl)-2-(trifluoromethyl)spiro[6,7-dihydrothieno[3,2-c]pyran-4,4'-piperidine]-7-ol]",< 50,99
